Test results as given in publication PMC9850727, “Benzoxazolone-5-Urea Derivatives as Human Soluble Epoxide Hydrolase (sEH) Inhibitors” (ACS Omega, 2023).

Key:
human recombinant sEH = target: T1, human recombinant sEH (Homo sapiens, UniProt P34913); test: Cell-free sEH activity assay (fluorescence-based, PHOME substrate); assay type: biochemical; conditions: mean ± SEM, n = 3, benzoxazolone-ureas (Table 2); for sEH activity % of control at 1 μM / sEH activity % of control at 10 μM: residual activity; for IC50: cell-free assay
T1 construct: made in house; host or cells: Sf9 cells infected with recombinant baculovirus (from Dr. Bruce Hammock, UC Davis)
T1 sequence (P34913 1-555): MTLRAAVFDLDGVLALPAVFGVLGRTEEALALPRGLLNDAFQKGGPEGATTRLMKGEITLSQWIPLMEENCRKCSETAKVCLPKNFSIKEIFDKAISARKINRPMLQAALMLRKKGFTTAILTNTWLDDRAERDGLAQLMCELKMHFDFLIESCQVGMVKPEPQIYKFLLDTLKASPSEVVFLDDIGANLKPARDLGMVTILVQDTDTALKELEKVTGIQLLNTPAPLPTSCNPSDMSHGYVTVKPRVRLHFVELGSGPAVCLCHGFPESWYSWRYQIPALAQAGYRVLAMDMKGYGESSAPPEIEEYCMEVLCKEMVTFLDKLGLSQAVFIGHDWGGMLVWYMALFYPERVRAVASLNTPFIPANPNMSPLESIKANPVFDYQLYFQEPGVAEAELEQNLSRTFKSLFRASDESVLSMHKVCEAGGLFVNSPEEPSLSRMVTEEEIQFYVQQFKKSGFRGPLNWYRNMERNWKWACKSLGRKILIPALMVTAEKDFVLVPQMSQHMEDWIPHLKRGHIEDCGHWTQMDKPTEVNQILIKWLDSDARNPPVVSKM
Excerpt: Inspired by the reported crystallographic screening studies,[12],[13],[15] a series of aryl amide (12, 15–21) or urea (31–39) derivatives with a benzoxazolone head group were synthesized and assessed for inhibition of human recombinant sEH in a cell-free activity assay[27] (Tables 1 and 2). […] Consequently, compounds in which the amide group is attached to the benzoxazolone ring through NH could outperform their direct reversed analogues by more favorable interactions in the central pocket of sEH. In addition, simple methylation of the benzoxazolone NH in 17–18 engendered noticeable differences in sEH inhibition relative to the unmethylated counterparts 15–16, implying that a free NH with H-bond donor property at this location is also important for the observed potency. Subsequently, the positioning of the amide group at the 5-position of the benzoxazolone ring also retained the inhibitory activity.
Human recombinant sEH was expressed and purified as published before.[31] Briefly, Sf9 cells were infected with a recombinant baculovirus (obtained from Dr. Bruce Hammock, University of California, Davis, CA). Following 72 h of transfection, the cells were centrifuged and then sonicated (3 × 10 s at 4 °C) in lysis buffer comprising glycerol (10%), NaHPO4 (50 mM, pH 8), leupeptin (10 μg/mL), NaCl (300 mM), phenylmethanesulfonyl fluoride (1 mM), EDTA (1 mM), and soybean trypsin inhibitor (60 μg/mL). After centrifugation at 100,000g (60 min, 4 °C), the obtained supernatants were subjected to a benzylthio-sepharose-affinity chromatography and eluted with 4-fluorochalcone oxide in PBS containing 1 mM DTT and 1 mM EDTA for purification of sEH. The enzyme was dialyzed and concentrated (Millipore Amicon-Ultra-15 centrifugal filter), and the solution was further assayed for total protein content by a protein detection kit (Bio-Rad Laboratories, Munich, Germany). The epoxide hydrolase activity was measured using a fluorescence-based assay, as reported before.[27] In brief, sEH was diluted in Tris buffer (25 mM, pH 7) containing BSA (0.1 mg/mL) to a suitable enzyme concentration and pretreated with test compounds or 0.1% DMSO as vehicle for 10 min at room temperature. To start the reaction, 50 μM of the PHOME substrate (3-phenyl-cyano(6-methoxy-2-naphthalenyl)methyl ester-2-oxiraneacetic acid), a nonfluorescent compound that is enzymatically converted by sEH into fluorescent 6-methoxy-naphtaldehyde, was added at RT. The reaction was stopped by addition of ZnSO4 (200 mM) after 60 min, and fluorescence was measured (λem 465 nm, λex 330 nm) by employing a NOVOstar microplate reader (BMG LABTECH GmbH, Ortenberg, Germany). If required, the potential fluorescence of test compounds was subtracted from the readout.

monocytes = test: Cytotoxic activity in monocytes (MTT, metabolic activity after 24 h); assay type: cell-based, human; conditions: metabolic activity (MTT) after 24 h, data not shown in main text (Figure S52)
Excerpt: The benzyl group appears as a frequently recurring chemical fragment in the architecture of amide or urea-type sEH inhibitors.[4] Therefore, we extracted this common fragment and combined it with benzoxazolone using a urea backbone with the aim of improving a sEH inhibitory potency in the newly designed analogues (Table 2). […] This implies that voluminous substituents at this position are better accommodated at the binding site. […] Taken together, 2- or appropriate 2,4-disubstitution patterns govern potent sEH inhibition in this series. Overall, the preliminary SAR in this work indicated a new favorable structural feature at the right- and left-hand side of the compounds to achieve potent sEH inhibition. Another aspect of characterizing the compounds is determining their cytotoxic activity; for this purpose, we used monocytes due to their high expression of sEH. By applying 33 and 38 to monocytes and measuring the metabolic activity after 24 h, we could exclude cytotoxic activity up to concentrations of 1 μM (data not shown).
The cytotoxic activities of compounds were assessed as previously described.[29] […] The absorbance was determined at 570 nm using a Multiskan Spectrum microplate reader (Thermo Fisher Scientific, Schwerte, Germany). […]

| sEH activity % of control at 1 μM (human recombinant sEH) | sEH activity % of control at 10 μM (human recombinant sEH) | IC50 (human recombinant sEH) [nM] | melting point | SMILES | concentration up to which cytotoxic activity is excluded (monocytes) [nM] |
| --- | --- | --- | --- | --- | --- |
| 1.9 ± 3.2 % of control | 6.8 ± 5.9 % of control | 0.39 ± 0.1 | – | O=C(NCc1ccccc1OC(F)(F)F)Nc1ccc2oc(=O)[nH]c2c1 [Compound 33, 3-(2-Oxo-2,3-dihydro-1,3-benzoxazol-5-yl)-1-{[2-(trifluoromethoxy)phenyl]methyl}urea] | > 1000 |
| 0.0 ± 0.0 % of control | 0.0 ± 0.0 % of control | 0.7 ± 0.08 | 260.9 °C (dec.) | O=C(NCc1ccc(Cl)cc1Cl)Nc1ccc2oc(=O)[nH]c2c1 [Compound 38, 1-[(2,4-Dichlorophenyl)methyl]-3-(2-oxo-2,3-dihydro-1,3-benzoxazol-5-yl)urea] | > 1000 |
